The target of assay [1] is T1, human FAAH (Fatty Acid Amide Hydrolase) (Homo sapiens, UniProt O00519).
T1 construct: The full length FAAH was subcloned into the mammalian expression vector, pcDEF.neo, using XbaI and EcoRI restriction sites; expressed in transfected cells
T1 sequence (O00519 1-579): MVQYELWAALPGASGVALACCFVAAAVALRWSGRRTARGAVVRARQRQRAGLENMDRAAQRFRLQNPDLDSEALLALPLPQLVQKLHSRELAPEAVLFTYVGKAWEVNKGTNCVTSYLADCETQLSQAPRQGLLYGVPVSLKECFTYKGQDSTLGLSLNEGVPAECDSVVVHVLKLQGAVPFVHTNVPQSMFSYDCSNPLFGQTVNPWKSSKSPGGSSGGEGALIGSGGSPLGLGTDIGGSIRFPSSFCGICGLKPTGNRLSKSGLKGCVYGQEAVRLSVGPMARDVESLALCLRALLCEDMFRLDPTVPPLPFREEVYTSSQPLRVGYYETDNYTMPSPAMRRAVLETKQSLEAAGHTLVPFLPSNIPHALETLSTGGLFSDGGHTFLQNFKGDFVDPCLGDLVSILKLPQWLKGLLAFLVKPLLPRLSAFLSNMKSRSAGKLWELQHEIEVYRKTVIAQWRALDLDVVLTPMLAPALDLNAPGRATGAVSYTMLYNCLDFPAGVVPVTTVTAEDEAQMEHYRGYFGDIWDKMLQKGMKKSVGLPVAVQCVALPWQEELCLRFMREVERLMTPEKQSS
Kind of assay: FAAH enzyme assay on CHO cell lysate expressing human FAAH (human LY), AAMCA fluorescent substrate. Type of assay: biochemical. The conditions noted are these: human FAAH_CHO cell lysate. The source says:
To assist in assay development stable cell lines for human, murine and rat full length FAAH were developed. Human FAAH cDNA (Accession No: NM_001441.1) was purchased from Origene (Rockville, Md.). The full length FAAH was subcloned into the mammalian expression vector, pcDEF.neo, using XbaI and EcoRI restriction sites and used for stable cell line generation.
CHO cells expressing FAAH were used to prepare either crude cell lysate or microsome fractions. To harvest cells, tissue culture media was decanted, the monolayer washed three times with Ca^++Mg^++ free PBS and cells recovered after […] in enzyme free dissociation media (Millipore Corp, Billerica, Mass.). Cells were collected by centrifuging at 2000 rpm for 15 min. and the cell pellet re-suspended with 50 mM HEPES (pH 7.4) containing 1 mM EDTA and the protease inhibitors aprotinin (1 mg/ml) and leupeptin (100 μM). The suspension was sonicated at 4° C. and the cell lysate recovered after centrifuging at 12,000×g (14,600 rpm, SS34 rotor) for 20 min at 4° C. to form a crude pellet of cell debris, nuclei, peroxisomes, lysosomes, and mitochondria; the supernatant or cell lysate was used for FAAH enzyme assay. In some cases, microsomes fractions enriched in FAAH were prepared by centrifuging the cell lysate further at 27,000 rpm (100,000×g) in SW28 rotor for 50 minutes at 4° C. The pellet containing FAAH-enriched microsomes was re-suspend in 50 mM HEPES, (pH 7.4) 1 mM EDTA, and any remaining DNA sheared by passage of material through a 23 gauge needle and aliquots of enzyme were store at −80° C. prior to use.
(American Radiolabeled Chemicals; 1 mCi/ml) with FAAH (Life Sciences (1995), 56, 1999-2005 and Journal of Pharmacology and Experimented Therapeutics (1997), 283, 729-734), Analytical. Biochemistry (2003), 318, 270-5. In addition, routine assays were performed monitoring hydrolysis of arachidonyl-7-amino-4-methylcoumarin amide (AAMCA) by following increase in fluorescence upon release of 7-amino 4-methyl coumarin (λEX=355 nm, μEM=460 nm). Analytical. Biochemistry (2005). 343, 143-51
Assays are performed on either cell lysate or microsome fractions prepared as described or in whole cell format employing either the fluorescent substrate AAMCA (Cayman chemical, Ann Arbor, Mich.,) or ^3H-anandamide ([ETHANOLAMINE-1-3H] American Radiolabeled Chemicals; 1 mCi/ml). The cell lysate or microsome assay is performed in black PerkinElmer OptiPlates-384F by adding FAAH_CHO (whole cell (human whole cell or human WC), cell lysate (human cell lysate or human LY) or microsome) in assay buffer (50 mM Phosphate, pH 8.0, 1 mM EDTA, 200 mM KCl, 0.2% glycerol, 0.1% fatty acid free BSA) to each well, followed by either DMSO or compound and allowed to incubate at 22-25° C. for fifteen minutes. AAMCA substrate was used to achieve a final concentration of 1 μM and reaction allowed to proceed at room temperature for 1-3 hours. Fluorescent release as a measure of FAAH activity was monitored by reading the plate in a Envision plate Reader (Ex: 360/40 nM; Em: 460/40 nM). Whole cell assay is conducted with cells harvested after rinsing tissue culture flasks three times with Ca^++Mg^++ free PBS, incubating for […] in Enzyme free dissociation media and centrifuging for 5 minutes at 1,000 rpm in table top centrifuge. Cells are resuspended in assay buffer at desired cell number in (4×10^4 cells/assay in 96-well format; 1×10^4 cells/assay in 384-well format) and assayed as described.

Assay [2] concerns the target T1, human FAAH (Fatty Acid Amide Hydrolase). Kind of assay: FAAH whole cell assay on CHO cells expressing human FAAH (human WC), AAMCA fluorescent substrate. Type of assay: cell-based. The conditions noted are these: human FAAH_CHO whole cell. In a few lines: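 CHO cells stably expressing full-length human FAAH, harvested with enzyme-free dissociation and resuspended at 4×10^4 cells/assay (96-well) or 1×10^4 (384-well) in 50 mM phosphate pH 8.0, 1 mM EDTA, 200 mM KCl, 0.2% glycerol, 0.1% BSA.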

For orientation: IC50 means the point on the concentration scale where inhibition reaches its midpoint. Take `OC(c1ccccc1)c1[nH]c2ncccc2c1Sc1ccc(Cl)cc1` (centres unmarked) [Example J4, {3-[(4-chlorophenyl)sulfanyl]-1H-pyrrolo[2,3-b]pyridin-2-yl}(phenyl)methanol]: the IC50 stood at 5870 nM in assay [1] and 10000 nM in assay [2].

Consider `Clc1ccc(Sc2c(-c3cnn4c3CCCC4)[nH]c3ncccc23)cc1` [Example B35], for which the IC50 came to 33.5 nM in assay [1] and 344 nM in assay [2].

For `FC(F)Oc1ccc(-c2[nH]c3ncccc3c2Sc2ccc(Cl)cc2)cc1` [Example B45], the figures for the IC50 in assay [1] and in assay [2] were 3.28 nM and 15.7 nM, respectively.

For `CSc1ccc(-c2[nH]c3ncccc3c2Sc2ccc(Cl)cc2)cc1` [Example A10], the half-inhibitory concentration (IC50) in assay [1] stood at 0.872 nM; in assay [2] it was 7.67 nM.

Regarding `OCCn1cccc2c(Sc3ccc(Cl)cc3)c(-c3ccc4c(c3)OCO4)nc1-2` [Example E12], the half-inhibitory concentration (IC50) worked out at 28.8 nM in assay [1] and 76.7 nM in assay [2].

As for `CC(C1COc2ccccc2O1)N(C)C(=O)c1[nH]c2ncccc2c1Sc1ccc(Cl)cc1` (centres unmarked) [Example C13], the IC50 in assay [1] worked out at 256 nM; in assay [2] it was 2630 nM.

`COc1ccc(NC(=O)c2[nH]c3ncccc3c2Sc2ccc(Cl)cc2)cn1` [Example C8]: the IC50 in assay [1] worked out at 42.9 nM; in assay [2], 272 nM.

`Cn1c2ncccc2c(Sc2ccc(Cl)cc2)c1[C@H]1CC[C@H](O)CC1` [Example E34]: the half-maximal inhibitory concentration (IC50) in assay [1] was found to be 7.08 nM; in assay [2], 9.93 nM.

On to `Cn1cccc2c(Sc3ccc(Cl)cn3)c(C3=CCC(O)CC3)nc1-2` (centres unmarked) [Example E19], for which the IC50 in assay [1] is 181 nM; in assay [2], 1210 nM.

As for `O=C(NCCO)C1CC=C(c2[nH]c3ncccc3c2Sc2ccc(Cl)cc2)CC1` (centres unmarked) [Example B49], the values for the 50% inhibitory concentration (IC50) in assay [1] and in assay [2] were 23.8 nM and 66.3 nM, respectively.

Take `N#Cc1cscc1-c1[nH]c2ncccc2c1Sc1ccc(Cl)cc1` [Example B32]: the IC50 amounted to 94.8 nM in assay [1] and 438 nM in assay [2].

Consider `OC(c1ccc2c(c1)OCO2)c1[nH]c2ncccc2c1Sc1ccc(Cl)cc1` (centres unmarked) [Example J9], for which the concentration for half-maximal inhibition (IC50) in assay [1] worked out at 2600 nM; in assay [2] it was 3330 nM.

Turning to `O=C(NCC(O)C1CCCCC1)c1[nH]c2ncccc2c1Sc1ccc(Cl)cc1` (centres unmarked) [Example C10], the IC50 is 660 nM in assay [1] and 1990 nM in assay [2].

In the case of `FC(F)(F)c1ccc(/C=C/c2[nH]c3ncccc3c2Sc2ccc(Cl)cc2)cc1` [Example B39], the 50% inhibitory concentration (IC50) in assay [1] and in assay [2] was 370 nM each time.

Turning to `CSc1ccc(-c2[nH]c3ncccc3c2Sc2ccc(Cl)cc2)cn1` [Example A16], the IC50 was 3.08 nM in assay [1] and 24 nM in assay [2].

With `OCc1ccc(-c2[nH]c3ncccc3c2Sc2ccc(Cl)cc2)cc1` [Example A29], the concentration for half-maximal inhibition (IC50) came to 16.9 nM in assay [1] and 132 nM in assay [2].

As to `CC1(C)CCC(NC(=O)c2[nH]c3ncccc3c2Sc2ccc(Cl)cc2)CC1` [Example C9], the results for the IC50 in assay [1] and in assay [2] were 251 nM and 773 nM, respectively.

Consider `OCCn1cccc2c(Sc3ccc(Cl)cn3)c(-c3ccc4c(c3)OCCO4)nc1-2` [Example E17], for which the IC50 amounted to 168 nM in assay [1] and 1300 nM in assay [2].

For the molecule `C[S+]([O-])c1ccc(-c2[nH]c3ncccc3c2Sc2ccc(Cl)cn2)cn1` (centres unmarked) [Example A15], the results for the IC50 in assay [1] and in assay [2] were 44.1 nM and 34.4 nM, respectively.

Consider `COc1ccc(C(O)c2[nH]c3ncccc3c2Sc2ccc(Cl)cc2)cc1` (centres unmarked) [Example J10], for which the IC50 in assay [1] was 818 nM; in assay [2], 8410 nM.

Regarding `OC1CCN(Cc2[nH]c3ncccc3c2Sc2ccc(Cl)cc2)CC1` [Example J8], the concentration for half-maximal inhibition (IC50) came out at 80.4 nM in assay [1] and 433 nM in assay [2].

Consider `NC1CC=C(c2[nH]c3ncccc3c2Sc2ccc(Cl)cc2)CC1` (centres unmarked) [Example B46], for which the IC50 amounted to 114 nM in assay [1] and 1410 nM in assay [2].

As for `CN(C)S(=O)(=O)c1ccc(-c2[nH]c3ncccc3c2Sc2ccc(Cl)cc2)cc1` [Example A11], the concentration for half-maximal inhibition (IC50) in assay [1] is 6.38 nM; in assay [2], 84.1 nM.

Consider `CCn1cccc2c(Sc3ccc(Cl)cc3)c(-c3ccc4c(c3)OCO4)nc1-2` [Example E13], for which the values for the concentration for half-maximal inhibition (IC50) in assay [1] and in assay [2] were 48.9 nM and 160 nM, respectively.

For `Clc1ccc(Sc2c(-c3cnn4c3CCC4)[nH]c3ncccc23)cc1` [Example B31], the figures for the IC50 in assay [1] and in assay [2] were 113 nM and 686 nM, respectively.

Regarding `Cn1cccc2c(Sc3ccc(Cl)cc3)c(-c3ccc4c(c3)OCCO4)nc1-2` [Example E2, 3-[(4-chlorophenyl)sulfanyl]-2-(2,3-dihydro-1,4-benzodioxin-6-yl)-7-methyl-7H-pyrrolo[2,3-b]pyridine], the half-maximal inhibitory concentration (IC50) in assay [1] was determined as 9.7 nM; in assay [2] it was 23.4 nM.

`COc1cc(-c2[nH]c3ncccc3c2Sc2ccc(Cl)cc2)cnc1OC` [Example B41]: the 50% inhibitory concentration (IC50) in assay [1] is 6.39 nM; in assay [2], 16.2 nM.

Consider `O[C@H]1CC[C@H](c2[nH]c3ncccc3c2Sc2ccc(Cl)cn2)CC1` [Example D6, trans-4-{3-[(5-chloropyridin-2-yl)sulfanyl]-1H-pyrrolo[2,3-b]pyridin-2-yl}cyclohexanol], for which the results for the 50% inhibitory concentration (IC50) in assay [1] and in assay [2] were 13.4 nM and 32.7 nM, respectively.

For `CSc1ccc(-c2[nH]c3ncccc3c2Sc2ccc(Cl)cn2)cc1` [Example A14], the figures for the IC50 in assay [1] and in assay [2] were 2.98 nM and 35.6 nM, respectively.

Consider `COC(=O)c1ccc(-c2[nH]c3ncccc3c2Sc2ccc(Cl)cc2)cc1` [Example A26], for which the figures for the concentration for half-maximal inhibition (IC50) in assay [1] and in assay [2] were 2.84 nM and 18.3 nM, respectively.

Turning to `COc1ccc(Cc2[nH]c3ncccc3c2Sc2ccc(Cl)cc2)cc1` [Example F2, 3-[(4-chlorophenyl)sulfanyl]-2-(4-methoxybenzyl)-1H-pyrrolo[2,3-b]pyridine], the IC50 in assay [1] was 52.9 nM; in assay [2], 151 nM.

As to `O=C(N[C@H]1CC[C@H](O)CC1)c1[nH]c2ncccc2c1Sc1ccc(Cl)cc1` [Example C4, 3-[(4-chlorophenyl)sulfanyl]-N-(trans-4-hydroxycyclohexyl)-1H-pyrrolo[2,3-b]pyridine-2-carboxamide], the results for the IC50 in assay [1] and in assay [2] were 7.64 nM and 48 nM, respectively.

For `Clc1ccc(Sc2c3cccn(CCn4cccc4)c-3nc2-c2ccc3c(c2)OCO3)cc1` [Example E22], the figures for the concentration for half-maximal inhibition (IC50) in assay [1] and in assay [2] were 497 nM and 3220 nM, respectively.

Regarding `Cn1c(-c2ccc3c(c2)OCCO3)c(Sc2ccc(Cl)cc2)c2cccnc21` [Example E3, 3-[(4-chlorophenyl)sulfanyl]-2-(2,3-dihydro-1,4-benzodioxin-6-yl)-1-methyl-1H-pyrrolo[2,3-b]pyridine], the results for the IC50 in assay [1] and in assay [2] were 6.51 nM and 16.6 nM, respectively.

The values are drawn from patent US20130059850A1, “AZA-INDOLE DERIVATIVES USEFUL AS MODULATORS OF FAAH” (MERCK SHARP & DOHME CORP., priority 2010, published 2013).
